Data as given in patent US20070128217A1 (priority 2003, published 2007).

Columns and labels:
[1] = system: rabbit serum obtained by immunizing a rabbit with the SARS-CoV strain Frankfurt 1; assay type: binding; set-up: Binding of a rabbit serum to linear peptides / Binding of a rabbit serum to looped peptides / Rabbit serum linear peptides / Rabbit serum looped peptides / Binding of a rabbit serum to linear peptides of protein N of SARS-CoV Urbani (Rabbit serum linear peptides) / Binding of a rabbit serum to looped/cyclic peptides of protein N of SARS-CoV Urbani (Rabbit serum looped peptides): unit not given here
[2] = system: recombinant human anti-SARS-CoV antibody 03-018; assay type: binding; set-up: Binding of antibody 03-018 to linear peptides of the N protein of SARS-CoV Urbani / Binding of antibody 03-018 to looped/cyclic peptides of the N protein of SARS-CoV Urbani: unit not given here
[3] = system: control sera (pooled serum of ten healthy LUMC hospital workers; commercial negative donor pooled serum from the Dutch bloodbank); assay type: binding, human; set-up: Binding of Control serum LUMC to linear peptides / Binding of Control serum Blood-bank to linear peptides / Binding of Control serum LUMC to looped peptides / Binding of Control Serum Blood-Bank to Looped peptides / Binding of Control serum LUMC to linear peptides of the protein M of SARS-CoV Urbani / Binding of Control serum Blood-bank to linear peptides of the protein M of SARS-CoV Urbani / Binding of Control serum LUMC to looped peptides of the protein M of SARS-CoV Urbani / Binding of Control Serum Blood-Bank to Looped peptides of the protein M of SARS-CoV Urbani: unit not given here
[4] = system: antibodies in sera from SARS patients (sera 1a, 1b, 2, 6, 37, 62, London, SARS-yellow, SARS-green); assay type: binding, human; set-up: Binding of serum 6 to linear peptides of protein X1 of SARS-CoV Urbani / Binding of serum 37 to linear peptides of protein X1 of SARS-CoV Urbani / Binding of serum 6 to looped/cyclic peptide (PEPSCAN-ELISA) / Binding of serum 37 to looped/cyclic peptide (PEPSCAN-ELISA) / Binding of serum 37 to looped/cyclic peptides of protein X1 of SARS-CoV Urbani / Binding of serum 6 to linear peptides of protein X2 / Binding of serum 37 to linear peptides of protein X2 / Binding of serum 37 to looped/cyclic peptides of protein X2 of SARS-CoV Urbani / Binding of serum 6 to linear peptides of protein M of SARS-CoV Urbani / Binding of serum 37 to linear peptides of protein M of SARS-CoV Urbani / Binding of serum 6 to looped/cyclic peptides of protein M of SARS-CoV Urbani / Binding of serum 37 to looped/cyclic peptides of protein M of SARS-CoV Urbani / Binding of serum 6 to linear peptides of protein X3 of SARS-CoV Urbani / Binding of serum 37 to linear peptides of protein X3 of SARS-CoV Urbani / Binding of serum 37 to looped/cyclic peptides of protein X3 of SARS-CoV Urbani / Binding of serum 6 to linear peptides of protein X4 of SARS-CoV Urbani / Binding of serum 37 to linear peptides of protein X4 of SARS-CoV Urbani / Binding of serum 37 to looped/cyclic peptides of protein X4 of SARS-CoV Urbani / Binding of serum 6 to linear peptides of protein X5 of SARS-CoV Urbani / Binding of serum 37 to linear peptides of protein X5 of SARS-CoV Urbani / Binding of serum 37 to looped/cyclic peptides of protein X5 of SARS-CoV Urbani / Binding of serum 6 to linear peptides of protein N of SARS-CoV Urbani / Binding of serum 37 to linear peptides of protein N of SARS-CoV Urbani / Binding of serum 6 to linear peptide (PEPSCAN-ELISA) / Binding of serum 1a to looped/cyclic peptides of protein N of SARS-CoV Urbani / Binding of serum 1b to looped/cyclic peptides of protein N of SARS-CoV Urbani / Binding of serum 2 to looped/cyclic peptides of protein N of SARS-CoV Urbani / Binding of serum 6 to looped/cyclic peptides of protein N of SARS-CoV Urbani / Binding of serum 37 to looped/cyclic peptides of protein N of SARS-CoV Urbani / Binding of serum 62 to looped/cyclic peptides of protein N of SARS-CoV Urbani / Binding of serum London to looped/cyclic peptides of protein N of SARS-CoV Urbani / Binding of serum SARS-green to looped/cyclic peptides of protein N of SARS-CoV Urbani: unit not given here

KGQQQQGQTVTKKSA
Binding of a rabbit serum to linear peptides of protein N of SARS-CoV Urbani (Rabbit serum linear peptides) [1]: 0.2 | Binding of a rabbit serum to looped/cyclic peptides of protein N of SARS-CoV Urbani (Rabbit serum looped peptides) [1]: 0.0 | Binding of antibody 03-018 to linear peptides of the N protein of SARS-CoV Urbani [2]: 0.1 | Binding of antibody 03-018 to looped/cyclic peptides of the N protein of SARS-CoV Urbani [2]: 0.2 | Binding of Control Serum Blood-Bank to Looped peptides [3]: 0.4 | Binding of Control serum Blood-bank to linear peptides [3]: 1.0 | Binding of Control serum LUMC to linear peptides [3]: 0.9 | Binding of Control serum LUMC to looped peptides [3]: 0.4 | Binding of serum 1a to linear peptide (PEPSCAN-ELISA) [4]: 0.3 | Binding of serum 1a to looped/cyclic peptides of protein N of SARS-CoV Urbani [4]: 0.2 | Binding of serum 1b to linear peptide (PEPSCAN-ELISA) [4]: 0.1 | Binding of serum 1b to looped/cyclic peptides of protein N of SARS-CoV Urbani [4]: 0.1 | Binding of serum 2 to linear peptide (PEPSCAN-ELISA) [4]: 0.2 | Binding of serum 2 to looped/cyclic peptides of protein N of SARS-CoV Urbani [4]: 0.2 | Binding of serum 6 to linear peptide (PEPSCAN-ELISA) [4]: 0.3 | Binding of serum 6 to looped/cyclic peptides of protein N of SARS-CoV Urbani [4]: 0.1 | Binding of serum 37 to linear peptide (PEPSCAN-ELISA) [4]: 0.7 | Binding of serum 37 to looped/cyclic peptides of protein N of SARS-CoV Urbani [4]: 0.4 | Binding of serum 62 to linear peptide (PEPSCAN-ELISA) [4]: 0.8 | Binding of serum 62 to looped/cyclic peptides of protein N of SARS-CoV Urbani [4]: 0.3 | Binding of serum London to linear peptide (PEPSCAN-ELISA) [4]: 0.6 | Binding of serum London to looped/cyclic peptides of protein N of SARS-CoV Urbani [4]: 0.3 | Binding of serum SARS-green to linear peptide (PEPSCAN-ELISA) [4]: 0.4 | Binding of serum SARS-green to looped/cyclic peptides of protein N of SARS-CoV Urbani [4]: 0.0 | Binding of serum SARS-yellow to linear peptide (PEPSCAN-ELISA) [4]: 0.6 | Binding of serum SARS-yellow to looped/cyclic peptides of protein N of SARS-CoV Urbani [4]: 0.1

KHWPQIAQFAPSASA
Binding of a rabbit serum to linear peptides of protein N of SARS-CoV Urbani (Rabbit serum linear peptides) [1]: 0.2 | Binding of a rabbit serum to looped/cyclic peptides of protein N of SARS-CoV Urbani (Rabbit serum looped peptides) [1]: 0.0 | Binding of antibody 03-018 to linear peptides of the N protein of SARS-CoV Urbani [2]: 0.1 | Binding of antibody 03-018 to looped/cyclic peptides of the N protein of SARS-CoV Urbani [2]: 0.2 | Control Serum Blood-Bank Looped peptides [3]: 0.7 | Control serum Blood-bank linear peptides [3]: 0.8 | Control serum LUMC linear peptides [3]: 0.7 | Control serum LUMC looped peptides [3]: 0.6 | Binding of serum 1a to linear peptides of protein N of SARS-CoV Urbani [4]: 0.3 | Binding of serum 1a to looped/cyclic peptides of protein N of SARS-CoV Urbani [4]: 0.3 | Binding of serum 1b to linear peptides of protein N of SARS-CoV Urbani [4]: 0.1 | Binding of serum 1b to looped/cyclic peptides of protein N of SARS-CoV Urbani [4]: 0.1 | Binding of serum 2 to linear peptides of protein N of SARS-CoV Urbani [4]: 0.3 | Binding of serum 2 to looped/cyclic peptides of protein N of SARS-CoV Urbani [4]: 0.3 | Binding of serum 6 to linear peptides of protein N of SARS-CoV Urbani [4]: 0.2 | Binding of serum 6 to looped/cyclic peptides of protein N of SARS-CoV Urbani [4]: 0.3 | Binding of serum 37 to linear peptides of protein N of SARS-CoV Urbani [4]: 0.8 | Binding of serum 37 to looped/cyclic peptides of protein N of SARS-CoV Urbani [4]: 0.2 | Binding of serum 62 to linear peptides of protein N of SARS-CoV Urbani [4]: 0.7 | Binding of serum 62 to looped/cyclic peptides of protein N of SARS-CoV Urbani [4]: 0.4 | Binding of serum London to linear peptides of protein N of SARS-CoV Urbani [4]: 0.7 | Binding of serum London to looped/cyclic peptides of protein N of SARS-CoV Urbani [4]: 0.5 | Binding of serum SARS-green to linear peptides of protein N of SARS-CoV Urbani [4]: 0.6 | Binding of serum SARS-green to looped/cyclic peptides of protein N of SARS-CoV Urbani [4]: 0.4 | Binding of serum SARS-yellow to linear peptides of protein N of SARS-CoV Urbani [4]: 0.8 | Binding of serum SARS-yellow to looped/cyclic peptides of protein N of SARS-CoV Urbani [4]: 0.2

KKDKKKKTDEAQPLP
Binding of a rabbit serum to linear peptides of protein N of SARS-CoV Urbani (Rabbit serum linear peptides) [1]: 0.1 | Binding of a rabbit serum to looped/cyclic peptides of protein N of SARS-CoV Urbani (Rabbit serum looped peptides) [1]: 0.2 | Binding of antibody 03-018 to linear peptides of the N protein of SARS-CoV Urbani [2]: 0.1 | Binding of antibody 03-018 to looped/cyclic peptides of the N protein of SARS-CoV Urbani [2]: 0.2 | Control Serum Blood-Bank Looped peptides [3]: 0.5 | Control serum Blood-bank linear peptides [3]: 0.7 | Control serum LUMC linear peptides [3]: 0.6 | Control serum LUMC looped peptides [3]: 0.4 | Binding of serum 1a to linear peptides of protein N of SARS-CoV Urbani [4]: 0.3 | Binding of serum 1a to looped/cyclic peptides of protein N of SARS-CoV Urbani [4]: 0.2 | Binding of serum 1b to linear peptides of protein N of SARS-CoV Urbani [4]: 0.2 | Binding of serum 1b to looped/cyclic peptides of protein N of SARS-CoV Urbani [4]: 0.1 | Binding of serum 2 to linear peptides of protein N of SARS-CoV Urbani [4]: 1.9 | Binding of serum 2 to looped/cyclic peptides of protein N of SARS-CoV Urbani [4]: 2.3 | Binding of serum 6 to linear peptides of protein N of SARS-CoV Urbani [4]: 0.2 | Binding of serum 6 to looped/cyclic peptides of protein N of SARS-CoV Urbani [4]: 0.2 | Binding of serum 37 to linear peptides of protein N of SARS-CoV Urbani [4]: 0.7 | Binding of serum 37 to looped/cyclic peptides of protein N of SARS-CoV Urbani [4]: 0.3 | Binding of serum 62 to linear peptides of protein N of SARS-CoV Urbani [4]: 0.7 | Binding of serum 62 to looped/cyclic peptides of protein N of SARS-CoV Urbani [4]: 0.3 | Binding of serum London to linear peptides of protein N of SARS-CoV Urbani [4]: 0.6 | Binding of serum London to looped/cyclic peptides of protein N of SARS-CoV Urbani [4]: 0.3 | Binding of serum SARS-green to linear peptides of protein N of SARS-CoV Urbani [4]: 0.4 | Binding of serum SARS-green to looped/cyclic peptides of protein N of SARS-CoV Urbani [4]: 0.1 | Binding of serum SARS-yellow to linear peptides of protein N of SARS-CoV Urbani [4]: 0.6 | Binding of serum SARS-yellow to looped/cyclic peptides of protein N of SARS-CoV Urbani [4]: 0.1

KKPRQKRTATKQYNV
Binding of a rabbit serum to linear peptides of protein N of SARS-CoV Urbani (Rabbit serum linear peptides) [1]: 0.3 | Binding of a rabbit serum to looped/cyclic peptides of protein N of SARS-CoV Urbani (Rabbit serum looped peptides) [1]: 0.0 | Binding of antibody 03-018 to linear peptides of the N protein of SARS-CoV Urbani [2]: 0.1 | Binding of antibody 03-018 to looped/cyclic peptides of the N protein of SARS-CoV Urbani [2]: 0.2 | Binding of Control Serum Blood-Bank to Looped peptides [3]: 0.4 | Binding of Control serum Blood-bank to linear peptides [3]: 0.6 | Binding of Control serum LUMC to linear peptides [3]: 0.7 | Binding of Control serum LUMC to looped peptides [3]: 0.5 | Binding of serum 1a to linear peptide (PEPSCAN-ELISA) [4]: 0.2 | Binding of serum 1a to looped/cyclic peptides of protein N of SARS-CoV Urbani [4]: 0.3 | Binding of serum 1b to linear peptide (PEPSCAN-ELISA) [4]: 0.1 | Binding of serum 1b to looped/cyclic peptides of protein N of SARS-CoV Urbani [4]: 0.1 | Binding of serum 2 to linear peptide (PEPSCAN-ELISA) [4]: 0.3 | Binding of serum 2 to looped/cyclic peptides of protein N of SARS-CoV Urbani [4]: 0.4 | Binding of serum 6 to linear peptide (PEPSCAN-ELISA) [4]: 0.2 | Binding of serum 6 to looped/cyclic peptides of protein N of SARS-CoV Urbani [4]: 0.3 | Binding of serum 37 to linear peptide (PEPSCAN-ELISA) [4]: 0.8 | Binding of serum 37 to looped/cyclic peptides of protein N of SARS-CoV Urbani [4]: 0.6 | Binding of serum 62 to linear peptide (PEPSCAN-ELISA) [4]: 0.8 | Binding of serum 62 to looped/cyclic peptides of protein N of SARS-CoV Urbani [4]: 0.5 | Binding of serum London to linear peptide (PEPSCAN-ELISA) [4]: 0.7 | Binding of serum London to looped/cyclic peptides of protein N of SARS-CoV Urbani [4]: 0.5 | Binding of serum SARS-green to linear peptide (PEPSCAN-ELISA) [4]: 0.1 | Binding of serum SARS-green to looped/cyclic peptides of protein N of SARS-CoV Urbani [4]: 0.1 | Binding of serum SARS-yellow to linear peptide (PEPSCAN-ELISA) [4]: 0.6 | Binding of serum SARS-yellow to looped/cyclic peptides of protein N of SARS-CoV Urbani [4]: 0.4
